Data published in ChEMBL document CHEMBL4699534, “Optimizing PEG-Extended Apelin Analogues as Cardioprotective Drug Leads: Importance of the KFRR Motif and Aromatic Head Group for Improved Physiological Activity” (J Med Chem, 2020).
Non-standard residues stand in square brackets, D forms with d. Residues, ends and D or L forms follow the SMILES beside them. *: point of attachment. CH3O(CH2CH2O)7C2H4CO = COCCOCCOCCOCCOCCOCCOCCOCCC(=O)*; PEG10 = NCCOCCOCCOCCOCCOCCOCCOCCOCCOCCOCCC(=O)O; Phe(4-Br) = N[C@@H](Cc1ccc(Br)cc1)C(=O)O; Fmoc = O=C(OCC1c2ccccc2-c2ccccc21)*; αMeR = C[C@](N)(CCCNC(=N)N)C(=O)O; NMeL = CN[C@@H](CC(C)C)C(=O)O; Nle = CCCC[C@H](N)C(=O)O; X1 = COCCOCCOCCOCCC(=O)*; Aib = CC(C)(N)C(=O)O

Experiments:
[1] = test system: Mus musculus; assay: Cardioprotective activity in C57BL/6 mouse assessed as reduction in mean arterial blood pressure at 1.4 uM/kg, iv measured after 15 mins relative to control; type: functional; details: 0.25 h
[2] = target: T1, Apelin receptor (Homo sapiens, UniProt P35414); assay: Activation of APJ receptor (unknown origin) expressed in Chem-5 cells assessed as stimulation of Ca2+ mobilization by Calcium 6-GF dye based fluorescence based assay; type: functional, cell-based
T1 sequence (P35414 whole entry): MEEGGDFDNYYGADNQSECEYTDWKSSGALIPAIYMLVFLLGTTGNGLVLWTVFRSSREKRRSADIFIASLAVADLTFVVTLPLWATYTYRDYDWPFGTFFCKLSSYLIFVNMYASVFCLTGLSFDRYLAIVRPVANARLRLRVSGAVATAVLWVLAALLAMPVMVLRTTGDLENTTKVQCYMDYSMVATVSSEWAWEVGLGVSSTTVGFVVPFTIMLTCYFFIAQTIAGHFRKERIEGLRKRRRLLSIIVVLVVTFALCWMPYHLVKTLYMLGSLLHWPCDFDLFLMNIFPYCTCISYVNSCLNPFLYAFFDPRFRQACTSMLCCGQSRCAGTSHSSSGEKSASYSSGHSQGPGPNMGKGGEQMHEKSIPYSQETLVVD

[3] = Half life in human plasma at 400 uM by HPLC analysis; type: ADME, cell-free
[4] = target: T2, Apelin receptor (Rattus norvegicus, UniProt Q9JHG3); assay: Displacement of [125I]-pyr-1-apelin-13 from EGFP-tagged wild-type rat apelin receptor expressed in CHO cell membranes by gamma counting method; parameters: species or system Cell membrane
T2 sequence (Q9JHG3 whole entry): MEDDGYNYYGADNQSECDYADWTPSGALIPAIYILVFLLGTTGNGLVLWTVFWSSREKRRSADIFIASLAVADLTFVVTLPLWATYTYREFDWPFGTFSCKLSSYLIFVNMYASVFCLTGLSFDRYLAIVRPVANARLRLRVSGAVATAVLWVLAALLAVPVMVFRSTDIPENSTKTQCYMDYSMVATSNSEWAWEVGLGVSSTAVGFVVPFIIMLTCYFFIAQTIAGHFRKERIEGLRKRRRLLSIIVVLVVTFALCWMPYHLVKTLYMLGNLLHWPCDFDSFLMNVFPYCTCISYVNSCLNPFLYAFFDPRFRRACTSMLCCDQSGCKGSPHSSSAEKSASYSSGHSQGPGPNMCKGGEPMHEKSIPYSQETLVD

CCCC[C@H](NC(=O)[C@@H]1CCCN1C(=O)CNC(=O)[C@H](CCCCN)NC(=O)[C@H](Cc1c[nH]cn1)NC(=O)[C@H](CO)NC(=O)[C@H](CC(C)C)N(C)C(=O)[C@H](CCCNC(=N)N)NC(=O)[C@@H]1CCCN1C(=O)[C@H](CCCNC(=N)N)NC(=O)[C@H](CCC(N)=O)NC(=O)[C@](C)(CCCNC(=N)N)NC(=O)[C@H](CCCNC(=N)N)NC(=O)[C@H](Cc1ccccc1)NC(=O)[C@@H](N)CCCCN)C(=O)NC(C)(C)C(=O)N[C@@H](Cc1ccc(Br)cc1)C(=O)O (H-KFR[αMeR]QRPR[NMeL]SHKGP[Nle][Aib][Phe(4-Br)]-OH)
Activity [1]: 18 mmHg
EC50 [2]: 2.4 nM
half-life at 400 µM [3]: 7.1 h
IC50 [4]: 1 nM

CCCC[C@H](NC(=O)[C@@H]1CCCN1C(=O)CNC(=O)[C@H](CCCCN)NC(=O)[C@H](Cc1c[nH]cn1)NC(=O)[C@H](CO)NC(=O)[C@H](CC(C)C)N(C)C(=O)[C@H](CCCNC(=N)N)NC(=O)[C@@H]1CCCN1C(=O)[C@H](CCCNC(=N)N)NC(=O)[C@H](CCC(N)=O)NC(=O)CCOCCOCCOCCOCCOCCOCCOCCOCCOCCOCCNC(=O)OCC1c2ccccc2-c2ccccc21)C(=O)NC(C)(C)C(=O)N[C@@H](Cc1ccc(Br)cc1)C(=O)O
Activity [1]: 1 mmHg
EC50 [2]: > 200 nM
half-life at 400 µM [3]: 8.6 h
IC50 [4]: 1.91 nM

CSCC[C@H](NC(=O)[C@@H]1CCCN1C(=O)CNC(=O)[C@H](CCCCN)NC(=O)[C@H](Cc1c[nH]cn1)NC(=O)[C@H](CO)NC(=O)[C@H](CC(C)C)NC(=O)[C@H](CCCNC(=N)N)NC(=O)[C@@H]1CCCN1C(=O)[C@H](CCCNC(=N)N)NC(=O)[C@H](CCC(N)=O)NC(=O)[C@H](CCCNC(=N)N)NC(=O)[C@H](CCCNC(=N)N)NC(=O)[C@H](C)NC(=O)[C@@H](N)CCCCN)C(=O)N1CCC[C@H]1C(=O)N[C@@H](Cc1ccccc1)C(=O)O
Activity [1]: -3 mmHg
EC50 [2]: 6.17 nM
IC50 [4]: 1 nM

CCCC[C@H](NC(=O)[C@@H]1CCCN1C(=O)CNC(=O)[C@H](CCCCN)NC(=O)[C@H](Cc1c[nH]cn1)NC(=O)[C@H](CO)NC(=O)[C@H](CC(C)C)NC(=O)[C@H](CCCNC(=N)N)NC(=O)[C@@H]1CCCN1C(=O)[C@H](CCCNC(=N)N)NC(=O)[C@H](CCC(N)=O)NC(=O)[C@H](C)NC(=O)[C@H](CCCNC(=N)N)NC(=O)[C@H](Cc1ccccc1)NC(=O)[C@@H](N)CCCCN)C(=O)NC(C)(C)C(=O)N[C@@H](Cc1ccc(Br)cc1)C(=O)O (H-KFRAQRPRLSHKGP[Nle][Aib][Phe(4-Br)]-OH)
IC50 [4]: 0.302 nM

CCCC[C@H](NC(=O)[C@@H]1CCCN1C(=O)CNC(=O)[C@H](CCCCN)NC(=O)[C@H](Cc1c[nH]cn1)NC(=O)[C@H](CO)NC(=O)[C@H](CC(C)C)N(C)C(=O)[C@H](CCCNC(=N)N)NC(=O)[C@@H]1CCCN1C(=O)[C@H](CCCNC(=N)N)NC(=O)[C@H](CCC(N)=O)NC(=O)[C@H](CCCNC(=N)N)NC(=O)[C@H](CCCNC(=N)N)NC(=O)[C@H](Cc1ccccc1)NC(=O)[C@H](CCCCN)NC(=O)CCOCCOCCOCCOCCOCCOCCOCCOC)C(=O)NC(C)(C)C(=O)N[C@@H](Cc1ccc(Br)cc1)C(=O)O ({CH3O(CH2CH2O)7C2H4CO}-KFRRQRPR[NMeL]SHKGP[Nle][Aib][Phe(4-Br)]-OH)
Activity [1]: 30 mmHg
EC50 [2]: 8.13 nM
half-life at 400 µM [3]: 0.7 h
IC50 [4]: 1.7 nM

CCCC[C@H](NC(=O)[C@@H]1CCCN1C(=O)CNC(=O)[C@H](CCCCN)NC(=O)[C@H](Cc1c[nH]cn1)NC(=O)[C@H](CO)NC(=O)[C@H](CC(C)C)NC(=O)[C@H](CCCNC(=N)N)NC(=O)[C@@H]1CCCN1C(=O)[C@H](CCCNC(=N)N)NC(=O)[C@H](CCC(N)=O)NC(=O)[C@H](CCCNC(=N)N)NC(=O)[C@H](CCCNC(=N)N)NC(=O)[C@H](C)NC(=O)[C@@H](N)CCCCN)C(=O)NC(C)(C)C(=O)N[C@@H](Cc1ccc(Br)cc1)C(=O)O (H-KARRQRPRLSHKGP[Nle][Aib][Phe(4-Br)]-OH)
IC50 [4]: 0.295 nM

CCCC[C@H](NC(=O)[C@@H]1CCCN1C(=O)CNC(=O)[C@H](CCCCN)NC(=O)[C@H](Cc1c[nH]cn1)NC(=O)[C@H](CO)NC(=O)[C@H](CC(C)C)N(C)C(=O)[C@H](CCCNC(=N)N)NC(=O)[C@@H]1CCCN1C(=O)[C@H](CCCNC(=N)N)NC(=O)[C@H](CCC(N)=O)NC(=O)[C@H](CCCNC(=N)N)NC(=O)[C@H](CCCNC(=N)N)NC(=O)[C@H](Cc1ccccc1)NC(=O)[C@H](CCCCN)NC(=O)CCOCCOCCOCCOC)C(=O)NC(C)(C)C(=O)N[C@@H](Cc1ccc(Br)cc1)C(=O)O (X1-KFRRQRPR[NMeL]SHKGP[Nle][Aib][Phe(4-Br)]-OH)
Activity [1]: 32 mmHg
EC50 [2]: 53.7 nM
half-life at 400 µM [3]: 2.8 h
IC50 [4]: 3.31 nM

CCCC[C@H](NC(=O)[C@@H]1CCCN1C(=O)CNC(=O)[C@H](CCCCN)NC(=O)[C@H](Cc1c[nH]cn1)NC(=O)[C@H](CO)NC(=O)[C@H](CC(C)C)N(C)C(=O)[C@H](CCCNC(=N)N)NC(=O)[C@@H]1CCCN1C(=O)[C@H](CCCNC(=N)N)NC(=O)[C@H](CCC(N)=O)NC(=O)[C@H](CCCNC(=N)N)NC(=O)[C@H](CCCNC(=N)N)NC(=O)[C@H](Cc1ccccc1)NC(=O)[C@H](CCCCN)NC(=O)CCOCCOCCOCCOCCOCCOCCOCCOCCOCCOCCNC(=O)OCC1c2ccccc2-c2ccccc21)C(=O)NC(C)(C)C(=O)N[C@@H](Cc1ccc(Br)cc1)C(=O)O ({Fmoc-PEG10}-KFRRQRPR[NMeL]SHKGP[Nle][Aib][Phe(4-Br)]-OH)
Activity [1]: 28 mmHg
EC50 [2]: 4.9 nM
half-life at 400 µM [3]: 17.2 h
IC50 [4]: 2.4 nM

CCCC[C@H](NC(=O)[C@@H]1CCCN1C(=O)CNC(=O)[C@H](CCCCN)NC(=O)[C@H](Cc1c[nH]cn1)NC(=O)[C@H](CO)NC(=O)[C@H](CC(C)C)NC(=O)[C@H](CCCNC(=N)N)NC(=O)[C@@H]1CCCN1C(=O)[C@H](CCCNC(=N)N)NC(=O)[C@H](CCC(N)=O)NC(=O)[C@H](CCCNC(=N)N)NC(=O)[C@H](C)NC(=O)[C@H](Cc1ccccc1)NC(=O)[C@@H](N)CCCCN)C(=O)NC(C)(C)C(=O)N[C@@H](Cc1ccc(Br)cc1)C(=O)O (H-KFARQRPRLSHKGP[Nle][Aib][Phe(4-Br)]-OH)
IC50 [4]: 0.219 nM

CCCC[C@H](NC(=O)[C@@H]1CCCN1C(=O)CNC(=O)[C@H](CCCCN)NC(=O)[C@H](Cc1c[nH]cn1)NC(=O)[C@H](CO)NC(=O)[C@H](CC(C)C)NC(=O)[C@H](CCCNC(=N)N)NC(=O)[C@@H]1CCCN1C(=O)[C@H](CCCNC(=N)N)NC(=O)[C@H](CCC(N)=O)NC(=O)[C@H](CCCNC(=N)N)NC(=O)[C@H](CCCNC(=N)N)NC(=O)[C@H](Cc1ccccc1)NC(=O)[C@H](C)N)C(=O)NC(C)(C)C(=O)N[C@@H](Cc1ccc(Br)cc1)C(=O)O (H-AFRRQRPRLSHKGP[Nle][Aib][Phe(4-Br)]-OH)
IC50 [4]: 0.2 nM

CSCC[C@H](NC(=O)[C@@H]1CCCN1C(=O)CNC(=O)[C@H](CCCCN)NC(=O)[C@H](Cc1c[nH]cn1)NC(=O)[C@H](CO)NC(=O)[C@H](CC(C)C)NC(=O)[C@H](CCCNC(=N)N)NC(=O)[C@@H]1CCCN1C(=O)[C@H](CCCNC(=N)N)NC(=O)[C@H](CCC(N)=O)NC(=O)[C@H](CCCNC(=N)N)NC(=O)[C@H](C)NC(=O)[C@H](Cc1ccccc1)NC(=O)[C@@H](N)CCCCN)C(=O)N1CCC[C@H]1C(=O)N[C@@H](Cc1ccccc1)C(=O)O
Activity [1]: 1 mmHg
EC50 [2]: 39.8 nM
IC50 [4]: 1.41 nM

CSCC[C@H](NC(=O)[C@@H]1CCCN1C(=O)CNC(=O)[C@H](CCCCN)NC(=O)[C@H](Cc1c[nH]cn1)NC(=O)[C@H](CO)NC(=O)[C@H](CC(C)C)NC(=O)[C@H](CCCNC(=N)N)NC(=O)[C@@H]1CCCN1C(=O)[C@H](CCCNC(=N)N)NC(=O)[C@H](CCC(N)=O)NC(=O)[C@H](CCCNC(=N)N)NC(=O)[C@H](CCCNC(=N)N)NC(=O)[C@H](Cc1ccccc1)NC(=O)[C@H](C)N)C(=O)N1CCC[C@H]1C(=O)N[C@@H](Cc1ccccc1)C(=O)O
Activity [1]: -14 mmHg
EC50 [2]: 5.37 nM
IC50 [4]: 1 nM

CSCC[C@H](NC(=O)[C@@H]1CCCN1C(=O)CNC(=O)[C@H](CCCCN)NC(=O)[C@H](Cc1c[nH]cn1)NC(=O)[C@H](CO)NC(=O)[C@H](CC(C)C)NC(=O)[C@H](CCCNC(=N)N)NC(=O)[C@@H]1CCCN1C(=O)[C@H](CCCNC(=N)N)NC(=O)[C@H](CCC(N)=O)NC(=O)[C@H](C)NC(=O)[C@H](CCCNC(=N)N)NC(=O)[C@H](Cc1ccccc1)NC(=O)[C@@H](N)CCCCN)C(=O)N1CCC[C@H]1C(=O)N[C@@H](Cc1ccccc1)C(=O)O
Activity [1]: -9 mmHg
EC50 [2]: 74.1 nM
IC50 [4]: 2.19 nM
